Patent publication US8952024B2, “Herbicidal pyrimidone derivatives” (E I du Pont de Nemours and Company, priority 2009, dated 2015)

Legend:
Type in all cases: in vivo
[1] = test system: cocklebur (Xanthium strumarium); assay: Test B pre-/postemergence plant response; settings: for Plant response rating, Cocklebur: Postemergence
Outline: (§1)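 Pre-em in loam/sand; post-em at 1–4 leaf (2–18 cm) in peat mix. Solvent + surfactant formulation. Greenhouse 13–15 d; visual % control vs untreated, 0–100.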

[2] = test system: lambsquarters (Chenopodium album); assay: Test B pre-/postemergence plant response; settings: for Plant response rating, Lambsquarters: Postemergence
Outline: as §1

[3] = test system: wheat (Triticum aestivum); assay: Test B pre-/postemergence plant response; settings: for Plant response rating, Wheat: Postemergence
Outline: as §1

[4] = test system: blackgrass (Alopecurus myosuroides); assay: Test B pre-/postemergence plant response; settings: for Plant response rating, Blackgrass: Postemergence
Outline: as §1

[5] = test system: pigweed (Amaranthus retroflexus); assay: Test B pre-/postemergence plant response; settings: for Plant response rating, Pigweed: Postemergence
Outline: as §1

[6] = test system: kochia (Kochia scoparia); assay: Test B pre-/postemergence plant response; settings: for Plant response rating, Kochia: Postemergence
Outline: as §1

[7] = test system: wild oat (Avena fatua); assay: Test B pre-/postemergence plant response; settings: for Plant response rating, Oat, Wild: Postemergence
Outline: as §1

[8] = test system: soybean (Glycine max); assay: Test B pre-/postemergence plant response; settings: for Plant response rating, Soybean: Postemergence
Outline: as §1

[9] = test system: velvetleaf (Abutilon theophrasti); assay: Test B pre-/postemergence plant response; settings: for Plant response rating, Velvetleaf: Postemergence
Outline: as §1

[10] = test system: Surinam grass (Brachiaria decumbens); assay: Test B pre-/postemergence plant response; settings: for Plant response rating, Surinam Grass: Postemergence
Outline: as §1

[11] = test system: windgrass (Apera spica-venti); assay: Test B postemergence plant response; settings: for Plant response rating, Windgrass: Postemergence
Outline: (§2)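 Visual ratings from 0 (no effect) to 100 (complete control), made against controls 13–15 days after treatment, kept in a greenhouse. Compounds were applied postemergence to potted plants at the 1- to 4-leaf stage (2–18 cm).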

[12] = test system: chickweed (Stellaria media); assay: Test B postemergence plant response; settings: for Plant response rating, Chickweed: Postemergence
Outline: as §2

[13] = test system: canarygrass (Phalaris minor); assay: Test B postemergence plant response; settings: for Plant response rating, Canarygrass: Postemergence
Outline: as §2

[14] = 62 g ai/ha, postemergence, 0 is no effect, 100 is complete control, 13 to 15 days
[15] = 31 g ai/ha, 0 to 100 scale (0 no effect, 100 complete control)
[16] = 125 g ai/ha, scale 0 to 100 (0 no effect, 100 complete control)
[17] = 250 g ai/ha, scale 0 to 100 (0 no effect, 100 complete control)

COCCn1c(-c2cccc(F)c2)ncc(C(=O)C2=C(O)CCCC2=O)c1=O [Compound 123]
Cocklebur plant response rating (0 to 100 scale) [1, 14]: 80
Plant response rating, Cocklebur [1, 15]: 65
Plant response rating, Cocklebur [1, 16]: 100
Plant response rating, Cocklebur [1, 17]: 100
Lambsquarters plant response rating (0 to 100 scale) [2, 14]: 95
Plant response rating, Lambsquarters [2, 15]: 80
Plant response rating, Lambsquarters [2, 16]: 98
Plant response rating, Lambsquarters [2, 17]: 98
Wheat plant response rating (0 to 100 scale) [3, 14]: 15
Plant response rating, Wheat [3, 15]: 10
Plant response rating, Wheat [3, 16]: 15
Blackgrass plant response rating (0 to 100 scale) [4, 14]: 20
Plant response rating, Blackgrass [4, 15]: 20
Plant response rating, Blackgrass [4, 16]: 40
Plant response rating, Blackgrass [4, 17]: 80
Pigweed plant response rating (0 to 100 scale) [5, 14]: 98
Plant response rating, Pigweed [5, 15]: 80
Plant response rating, Pigweed [5, 16]: 100
Plant response rating, Pigweed [5, 17]: 100
Kochia plant response rating (0 to 100 scale) [6, 14]: 65
Plant response rating, Kochia [6, 15]: 60
Plant response rating, Kochia [6, 16]: 80
Plant response rating, Kochia [6, 17]: 100
Oat, Wild plant response rating (0 to 100 scale) [7, 14]: 5
Plant response rating, Oat, Wild [7, 15]: 0
Plant response rating, Oat, Wild [7, 16]: 30
Plant response rating, Oat, Wild [7, 17]: 60
Soybean plant response rating (0 to 100 scale) [8, 14]: 75
Plant response rating, Soybean [8, 15]: 60
Plant response rating, Soybean [8, 16]: 85
Plant response rating, Soybean [8, 17]: 90
Velvetleaf plant response rating (0 to 100 scale) [9, 14]: 90
Plant response rating, Velvetleaf [9, 15]: 80
Plant response rating, Velvetleaf [9, 16]: 95
Plant response rating, Velvetleaf [9, 17]: 100
Surinam Grass plant response rating (0 to 100 scale) [10, 14]: 75
Plant response rating, Surinam Grass [10, 15]: 25
Plant response rating, Surinam Grass [10, 16]: 85
Plant response rating, Surinam Grass [10, 17]: 85
Windgrass plant response rating (0 to 100 scale) [11, 14]: 60
Plant response rating, Windgrass [11, 15]: 30
Plant response rating, Windgrass [11, 16]: 80
Chickweed plant response rating (0 to 100 scale) [12, 14]: 75
Plant response rating, Chickweed [12, 15]: 70
Plant response rating, Chickweed [12, 16]: 95
Plant response rating, Chickweed [12, 17]: 100
Canarygrass plant response rating (0 to 100 scale) [13, 14]: 40
Plant response rating, Canarygrass [13, 15]: 25
Plant response rating, Canarygrass [13, 16]: 55
Plant response rating, Canarygrass [13, 17]: 85
